Data on three compounds can be found in US9708359B2, “Pyrrolopyrimidine nucleosides and analogs thereof” (Chimerix, Inc., priority 2015, dated 2017).

The test system of series [1] is mouse norovirus. Nature of the series: Mouse Norovirus (MNV) assay in RAW cells. To be noted: Norovirus, in Mus musculus, read-out: MNV Mean EC50, RAW cells.
Series [2] is described as follows: Cytotoxicity (CC50) in RAW cells. As to conditions: mouse.
Series [3] deals with human norovirus. Nature of the series: Efficacy of Compound 1 Against Human Norovirus (viral titer). It counts as cell-based. To be noted: cells pretreated with 25 μM compound for two hours; duplicate (FIGS. 4-6). Here is the method: The efficacy of compound 1 for inhibiting norovirus was compared to DMSO (as a control), compound 2, and 2′-C-methylcytidine triphosphate (2′CmeC TP). Cells were pretreated with 25 μM of experimental compound for two hours. Virus inoculum was added for two hours, and unbound virus washed off and fresh media and fresh experimental compound was added.

The subject of series [4] is RAW cells. Nature of the series: Conversion of Compound 1 to Triphosphate in RAW Cells. To be noted: for (Compound 1-TP)/(Compound 1) (ng): ratio by ng; for (Compound 1-TP)/(Compound 1) (pmol): ratio by pmol.
Setting [5] is: RAW cells incubated with 0.5 μM Compound 1 for 48 hours.
[6] abbreviates: RAW cells incubated with 1 μM Compound 1 for 48 hours.
Where [7] appears, read: RAW cells incubated with 5 μM Compound 1 for 48 hours.
The mark [8] stands for this setting: RAW cells incubated with 10 μM Compound 1 for 48 hours.

The term EC50 denotes the midpoint of the concentration-response curve. A word on the CC50: it is the concentration at which the toxic effect on the cells reaches its halfway point. Lower therefore signals greater toxicity to the cells. For `C[C@@]1(O)[C@H](O)[C@@H](CO)O[C@H]1n1ccc(N)nc1=O` [2′-C-Methyl Cytidine, reference compound], the EC50 in series [1] came to 3.2 µM. Further, the CC50 in series [2] was determined as 34.3 µM.

`C[C@@]1(O)[C@H](O)[C@@H](COP(=O)(O)OP(=O)(O)OP(=O)(O)O)O[C@H]1n1ccc(N)nc1=O` [2′CmeC TP, 2′-C-methylcytidine triphosphate, reference compound]: in series [3], the viral titer entry is on record as “increased almost two orders of magnitude”.

`Cc1nc(N)c2c(C(N)=O)cn([C@@H]3O[C@H](COP(=O)(O)OP(=O)(O)OP(=O)(O)O)[C@@H](O)[C@H]3O)c2n1` [Compound 1-TP]: the “Concentration (ng/1 × 10^6 cells)” value in series [4] (setting [5]) amounted to 3.74 ng/1 × 10^6 cells; in series [4] (setting [6]), 5.13 ng/1 × 10^6 cells; in series [4] (setting [7]) it was 26.77 ng/1 × 10^6 cells; in series [4] (setting [8]), 41.78 ng/1 × 10^6 cells. The “Concentration (pmol/1 × 10^6 cells)” value in series [4] (setting [5]) is listed as 6.37 pmol/1 × 10^6 cells; in series [4] (setting [6]), 8.74 pmol/1 × 10^6 cells; in series [4] (setting [7]) it was 45.61 pmol/1 × 10^6 cells; in series [4] (setting [8]), 71.18 pmol/1 × 10^6 cells. The “(Compound 1-TP)/(Compound 1) (ng)” value in series [4] (0.5 μM Compound 1, 48 hours) worked out at 21.8; in series [4] (1 μM Compound 1, 48 hours), 39.4; in series [4] (5 μM Compound 1, 48 hours), 41.3; in series [4] (10 μM Compound 1, 48 hours) it was 41.1. For the same compound, the “(Compound 1-TP)/(Compound 1) (pmol)” value in series [4] (0.5 μM Compound 1, 48 hours) is 12.0; in series [4] (1 μM Compound 1, 48 hours), 21.7; in series [4] (5 μM Compound 1, 48 hours) it was 22.7; in series [4] (10 μM Compound 1, 48 hours) it was 22.6.
